These results are taken from US20260028365A1 (BIOGEN MA INC., priority 2022, published 2026).

Bounds are passed on as bounds.

One test concerns the target Tyk2 (Homo sapiens (Human), UniProt P29597). The test is described as follows: pSTAT4 Cell Assay (MSD, NK92 cells). The format is cell-based. As to conditions: MSD.
The target of the next test is JAK2 (Homo sapiens (Human), UniProt O60674). The test is described as follows: pSTAT5 Cell Assay (MSD, TF1 cells). The format is cell-based. As to conditions: IL-3 stimulation, MSD. The essentials: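 Serum-starved TF1 cells were pretreated with compound for 1 h (10-point four-fold series from 10 μM), then stimulated with 30 ng/mL IL-3 for 15 min. pSTAT5 in lysates was measured by MSD immunoassay. IC50 came from a 4-parameter logistic fit.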
Chain of JAK2 (O60674 whole entry): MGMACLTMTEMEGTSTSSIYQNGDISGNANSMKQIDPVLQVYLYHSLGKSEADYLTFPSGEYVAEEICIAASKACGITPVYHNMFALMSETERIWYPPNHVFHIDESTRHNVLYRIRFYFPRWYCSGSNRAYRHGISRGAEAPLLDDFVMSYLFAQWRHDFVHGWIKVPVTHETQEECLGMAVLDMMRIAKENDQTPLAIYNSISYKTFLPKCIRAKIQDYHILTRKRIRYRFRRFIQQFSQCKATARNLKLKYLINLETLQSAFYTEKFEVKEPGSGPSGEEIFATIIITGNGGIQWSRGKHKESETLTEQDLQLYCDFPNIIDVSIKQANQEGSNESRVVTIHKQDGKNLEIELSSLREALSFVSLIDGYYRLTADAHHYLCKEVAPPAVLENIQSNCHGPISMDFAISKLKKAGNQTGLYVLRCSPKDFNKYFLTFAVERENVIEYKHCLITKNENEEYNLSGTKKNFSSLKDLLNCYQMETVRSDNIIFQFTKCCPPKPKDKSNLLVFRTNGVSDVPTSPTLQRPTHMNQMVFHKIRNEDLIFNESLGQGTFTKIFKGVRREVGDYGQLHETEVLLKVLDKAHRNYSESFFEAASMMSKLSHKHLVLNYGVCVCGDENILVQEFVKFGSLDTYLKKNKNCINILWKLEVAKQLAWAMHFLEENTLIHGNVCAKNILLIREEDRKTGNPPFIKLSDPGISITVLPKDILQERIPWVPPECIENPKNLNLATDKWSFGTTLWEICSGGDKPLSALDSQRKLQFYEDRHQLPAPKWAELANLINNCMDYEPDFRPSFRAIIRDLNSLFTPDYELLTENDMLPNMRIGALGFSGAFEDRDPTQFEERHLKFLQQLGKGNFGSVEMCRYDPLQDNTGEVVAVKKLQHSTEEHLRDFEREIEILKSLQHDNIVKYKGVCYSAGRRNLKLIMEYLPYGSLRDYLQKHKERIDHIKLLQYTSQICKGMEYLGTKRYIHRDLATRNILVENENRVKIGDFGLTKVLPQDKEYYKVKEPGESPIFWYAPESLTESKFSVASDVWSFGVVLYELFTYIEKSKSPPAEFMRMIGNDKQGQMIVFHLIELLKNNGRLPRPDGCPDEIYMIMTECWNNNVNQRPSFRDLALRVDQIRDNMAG

The target of the next test is JAK1 (Homo sapiens (Human), UniProt P23458). The test is described as follows: pSTAT3 Cell Assay (MSD, TF1 cells). The note with it: IL-6 stimulation, MSD. The class given is cell-based. A digest of the protocol: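 IC50 values reflect 4-parameter logistic fits of normalized pSTAT3 signal, measured by MSD in lysed TF1 cells. Cells were serum-starved and treated with compound for 1 h (top concentration 10 μM) before a 15 min IL-6 challenge.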
Chain of JAK1 (P23458 whole entry): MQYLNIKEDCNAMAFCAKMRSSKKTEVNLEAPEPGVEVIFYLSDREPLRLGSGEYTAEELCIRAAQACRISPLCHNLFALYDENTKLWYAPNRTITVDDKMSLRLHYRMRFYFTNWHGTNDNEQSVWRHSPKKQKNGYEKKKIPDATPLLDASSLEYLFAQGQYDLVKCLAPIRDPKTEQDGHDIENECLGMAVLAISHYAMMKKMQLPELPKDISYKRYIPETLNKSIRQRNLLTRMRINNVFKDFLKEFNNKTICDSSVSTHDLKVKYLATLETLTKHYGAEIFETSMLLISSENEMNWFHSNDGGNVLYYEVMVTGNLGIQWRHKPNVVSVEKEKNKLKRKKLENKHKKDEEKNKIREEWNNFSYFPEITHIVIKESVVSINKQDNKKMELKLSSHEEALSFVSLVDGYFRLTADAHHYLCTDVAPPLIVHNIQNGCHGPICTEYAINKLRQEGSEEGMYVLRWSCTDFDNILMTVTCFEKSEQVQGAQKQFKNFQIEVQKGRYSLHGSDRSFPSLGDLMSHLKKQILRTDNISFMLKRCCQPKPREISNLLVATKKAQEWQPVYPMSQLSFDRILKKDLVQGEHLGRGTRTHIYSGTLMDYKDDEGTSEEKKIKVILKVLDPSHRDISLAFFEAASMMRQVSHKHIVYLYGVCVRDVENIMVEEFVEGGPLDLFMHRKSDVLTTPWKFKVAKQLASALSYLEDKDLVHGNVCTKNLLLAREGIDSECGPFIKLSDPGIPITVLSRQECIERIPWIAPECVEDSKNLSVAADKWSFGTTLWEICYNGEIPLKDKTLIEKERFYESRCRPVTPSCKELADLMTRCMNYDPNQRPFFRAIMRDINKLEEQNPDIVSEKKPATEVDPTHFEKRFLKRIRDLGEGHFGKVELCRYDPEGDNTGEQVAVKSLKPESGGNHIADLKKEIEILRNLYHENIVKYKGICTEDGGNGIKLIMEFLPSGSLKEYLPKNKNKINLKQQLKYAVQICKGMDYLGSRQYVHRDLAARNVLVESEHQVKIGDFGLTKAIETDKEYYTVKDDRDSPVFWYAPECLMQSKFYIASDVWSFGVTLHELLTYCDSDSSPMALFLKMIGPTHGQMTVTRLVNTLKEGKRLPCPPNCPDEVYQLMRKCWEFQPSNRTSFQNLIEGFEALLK

Another test addresses JH2 domain of human Tyk2 (Homo sapiens (Human), UniProt P29597). The test is described as follows: JH2 Biochemical Assay (TR-FRET probe displacement). The class given is binding. The note with it: TR-FRET probe displacement, JH2 domain of human Tyk2. A general note: In TR-FRET formats the signal depends on donor and acceptor labels being close together.

Chain of JH2 domain of human Tyk2 (P29597 575-876): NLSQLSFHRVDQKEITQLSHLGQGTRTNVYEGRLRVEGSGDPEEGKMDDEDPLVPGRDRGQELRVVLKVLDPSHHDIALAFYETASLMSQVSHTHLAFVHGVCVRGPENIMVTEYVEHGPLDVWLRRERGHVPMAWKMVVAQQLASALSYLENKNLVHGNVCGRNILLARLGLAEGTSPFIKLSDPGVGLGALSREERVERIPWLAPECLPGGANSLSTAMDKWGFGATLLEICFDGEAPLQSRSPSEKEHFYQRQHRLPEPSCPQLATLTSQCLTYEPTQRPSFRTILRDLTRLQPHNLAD
Chain of Tyk2 (P29597 whole entry): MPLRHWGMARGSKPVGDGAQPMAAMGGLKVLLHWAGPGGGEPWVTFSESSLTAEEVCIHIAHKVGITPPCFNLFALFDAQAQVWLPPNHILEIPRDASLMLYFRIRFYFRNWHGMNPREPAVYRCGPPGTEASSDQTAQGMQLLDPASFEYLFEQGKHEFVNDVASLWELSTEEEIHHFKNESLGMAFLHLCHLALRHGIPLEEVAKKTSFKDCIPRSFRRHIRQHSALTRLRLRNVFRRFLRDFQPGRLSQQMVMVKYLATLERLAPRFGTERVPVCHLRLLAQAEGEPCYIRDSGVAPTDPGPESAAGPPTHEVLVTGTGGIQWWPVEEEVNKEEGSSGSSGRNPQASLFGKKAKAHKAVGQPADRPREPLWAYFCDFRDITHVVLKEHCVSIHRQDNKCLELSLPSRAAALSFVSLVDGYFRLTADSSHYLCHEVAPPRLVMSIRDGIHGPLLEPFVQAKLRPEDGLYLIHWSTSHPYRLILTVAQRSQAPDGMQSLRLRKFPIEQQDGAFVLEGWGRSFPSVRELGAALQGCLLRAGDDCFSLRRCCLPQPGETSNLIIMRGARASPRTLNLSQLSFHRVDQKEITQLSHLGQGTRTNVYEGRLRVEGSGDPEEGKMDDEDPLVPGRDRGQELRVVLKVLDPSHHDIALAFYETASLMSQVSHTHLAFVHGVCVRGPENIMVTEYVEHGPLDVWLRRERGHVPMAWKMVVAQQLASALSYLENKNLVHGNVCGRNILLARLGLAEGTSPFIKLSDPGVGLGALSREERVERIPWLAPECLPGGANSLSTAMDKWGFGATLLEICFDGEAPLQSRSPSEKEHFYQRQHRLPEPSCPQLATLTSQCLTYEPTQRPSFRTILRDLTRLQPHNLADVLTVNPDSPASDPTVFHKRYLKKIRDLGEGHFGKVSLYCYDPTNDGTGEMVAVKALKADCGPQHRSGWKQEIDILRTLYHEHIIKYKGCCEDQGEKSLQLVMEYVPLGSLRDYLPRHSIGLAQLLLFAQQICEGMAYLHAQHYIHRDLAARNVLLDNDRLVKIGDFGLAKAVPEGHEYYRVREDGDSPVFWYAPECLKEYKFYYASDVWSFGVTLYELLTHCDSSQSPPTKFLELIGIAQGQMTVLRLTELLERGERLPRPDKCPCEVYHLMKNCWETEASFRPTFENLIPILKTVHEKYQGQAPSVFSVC

In general, IC50 refers to the point on the concentration scale where inhibition reaches its midpoint. Higher therefore signals weaker potency. In the case of `CC(=O)Nc1cc(Nc2cc(C)nc(C(C)(F)F)n2)c(OCc2ccccn2)cn1` [Example 101, N-(4-((2-(1,1-difluoroethyl)-6-methylpyrimidin-4-yl)amino)-5-(pyridin-2-ylmethoxy)pyridin-2-yl)acetamide], the concentration for half-maximal inhibition (IC50) is 10 to 100 nM against Tyk2, at least 1000 nM against JAK2, at least 1000 nM on JAK1 and at most 10 nM on JH2 domain of human Tyk2.
On to `CC(=O)Nc1cc(Nc2cc(OC3CC3)nc(C(C)(F)F)n2)c(OCC2CCCO2)cn1` (centres unmarked) [Example 139, N-(4-((6-cyclopropoxy-2-(1,1-difluoroethyl)pyrimidin-4-yl)amino)-5-((tetrahydrofuran-2-yl)methoxy)pyridin-2-yl)acetamide], for which the half-inhibitory concentration (IC50) on Tyk2 is at most 10 nM; on JAK2 it was at least 1000 nM; against JAK1 it was at least 1000 nM; on JH2 domain of human Tyk2, at most 10 nM.
As to `CC(=O)Nc1cc(Nc2cc(C)nc(C(C)(F)F)n2)c(-c2ccc(C#N)cn2)cn1` [Example 145, N-(5-cyano-4′-((2-(1,1-difluoroethyl)-6-methylpyrimidin-4-yl)amino)-[2,3′-bipyridin]-6′-yl)acetamide], the IC50 is at most 10 nM at Tyk2, at least 1000 nM against JAK2, at least 1000 nM against JAK1 and at most 10 nM on JH2 domain of human Tyk2.
On to `CC(=O)Nc1cc(Nc2ccnc(C(C)(F)F)n2)c(-c2ccc(C#N)cn2)cn1` [Example 146, N-(5-cyano-4′-((2-(1,1-difluoroethyl)pyrimidin-4-yl)amino)-[2,3′-bipyridin]-6′-yl)acetamide], for which the half-maximal inhibitory concentration (IC50) is at most 10 nM on Tyk2, at least 1000 nM against JAK2, at least 1000 nM at JAK1 and at most 10 nM on JH2 domain of human Tyk2.
`CC(=O)Nc1cc(Nc2ccnc(C(C)(C)F)n2)c(-c2ccnc(C)n2)cn1` [Example 175, N-(4-((2-(2-fluoropropan-2-yl)pyrimidin-4-yl)amino)-5-(2-methylpyrimidin-4-yl)pyridin-2-yl)acetamide]: the IC50 was at most 10 nM against Tyk2, at least 1000 nM at JAK2, at least 1000 nM against JAK1 and at most 10 nM at JH2 domain of human Tyk2.
In the case of `CC(=O)Nc1cc(Nc2cc(C)nc(C(C)(F)F)n2)c(-c2ncc(F)cn2)cn1` [Example 182, N-(4-((2-(1,1-difluoroethyl)-6-methylpyrimidin-4-yl)amino)-5-(5-fluoropyrimidin-2-yl)pyridin-2-yl)acetamide], the IC50 on Tyk2 was 10 to 100 nM; against JAK2, at least 1000 nM; at JAK1, at least 1000 nM; at JH2 domain of human Tyk2, at most 10 nM.
Take `CC(=O)Nc1cc(Nc2ccnc(C(C)(F)F)n2)c(-c2ncc(F)cn2)cn1` [Example 185, N-(4-((2-(1,1-difluoroethyl)pyrimidin-4-yl)amino)-5-(5-fluoropyrimidin-2-yl)pyridin-2-yl)acetamide]: the IC50 was 10 to 100 nM at Tyk2, at least 1000 nM on JAK2, at least 1000 nM against JAK1 and at most 10 nM at JH2 domain of human Tyk2.
As for `COc1cc(-c2cnc(NC(C)=O)cc2Nc2ccnc(C(C)(C)F)n2)ncn1` [Example 195, N-(4-((2-(2-fluoropropan-2-yl)pyrimidin-4-yl)amino)-5-(6-methoxypyrimidin-4-yl)pyridin-2-yl)acetamide], the half-inhibitory concentration (IC50) against Tyk2 is 10 to 100 nM; at JAK2, at least 1000 nM; against JAK1, at least 1000 nM; at JH2 domain of human Tyk2, at most 10 nM.
`CC(=O)Nc1cc(Nc2cc(C)nc(C(C)(C)F)n2)c(-c2cc(C)ncn2)cn1` [Example 200, N-(4-((2-(2-fluoropropan-2-yl)-6-methylpyrimidin-4-yl)amino)-5-(6-methylpyrimidin-4-yl)pyridin-2-yl)acetamide]: the IC50 at Tyk2 is 10 to 100 nM; on JAK2 it was at least 1000 nM; against JAK1 it was at least 1000 nM; at JH2 domain of human Tyk2 it was at most 10 nM.
Turning to `CC(=O)Nc1cc(Nc2ccnc(C(C)(F)F)n2)c(-c2cc(C)ncn2)cn1` [Example 201, N-(4-((2-(1,1-difluoroethyl)pyrimidin-4-yl)amino)-5-(6-methylpyrimidin-4-yl)pyridin-2-yl)acetamide], the IC50 is 10 to 100 nM at Tyk2, at least 1000 nM at JAK2, at least 1000 nM on JAK1 and at most 10 nM at JH2 domain of human Tyk2.
Regarding `CC(=O)Nc1cc(Nc2cncc(C(C)(F)F)n2)c(-c2ccn(C)n2)cn1` [Example 212, N-(4-((6-(1,1-difluoroethyl)pyrazin-2-yl)amino)-5-(1-methyl-1H-pyrazol-3-yl)pyridin-2-yl)acetamide], the IC50 at Tyk2 is at most 10 nM; on JAK2 it was 100 to 1000 nM; at JAK1, at least 1000 nM; at JH2 domain of human Tyk2, at most 10 nM.
Turning to `CC(=O)Nc1cc(Nc2cc(C)nc(C(C)(F)F)n2)c(-c2ccn(C)n2)cn1` [Example 218, N-(4-((2-(1,1-difluoroethyl)-6-methylpyrimidin-4-yl)amino)-5-(1-methyl-1H-pyrazol-3-yl)pyridin-2-yl)acetamide], the half-inhibitory concentration (IC50) against Tyk2 is at most 10 nM; at JAK2 it was at least 1000 nM; against JAK1, at least 1000 nM; on JH2 domain of human Tyk2, at most 10 nM.
For `CC(=O)Nc1cc(Nc2cc(C)nc(C(C)(F)F)n2)c(-c2cc3n(n2)CCN(C)C3)cn1` [Example 226, N-(4-((2-(1,1-difluoroethyl)-6-methylpyrimidin-4-yl)amino)-5-(5-methyl-4,5,6,7-tetrahydropyrazolo[1,5-a]pyrazin-2-yl)pyridin-2-yl)acetamide], the concentration for half-maximal inhibition (IC50) is at most 10 nM against Tyk2, at least 1000 nM on JAK2, 100 to 1000 nM against JAK1 and at most 10 nM at JH2 domain of human Tyk2.
On to `CC(=O)Nc1cc(Nc2cc(C)nc(C(C)(F)F)n2)c(-c2cnn(C)n2)cn1` [Example 227, N-(4-((2-(1,1-difluoroethyl)-6-methylpyrimidin-4-yl)amino)-5-(2-methyl-2H-1,2,3-triazol-4-yl)pyridin-2-yl)acetamide], for which the IC50 was at most 10 nM against Tyk2, at least 1000 nM on JAK2, at least 1000 nM on JAK1 and at most 10 nM on JH2 domain of human Tyk2.
`CC(=O)Nc1cc(Nc2cc(C)nc(C(C)(F)F)n2)c(-c2nc3c(s2)CCN(C)C3)cn1` [Example 237, N-(4-((2-(1,1-difluoroethyl)-6-methylpyrimidin-4-yl)amino)-5-(5-methyl-4,5,6,7-tetrahydrothiazolo[4,5-c]pyridin-2-yl)pyridin-2-yl)acetamide]: the IC50 against Tyk2 was at most 10 nM; on JAK2, at least 1000 nM; on JAK1 it was at least 1000 nM; on JH2 domain of human Tyk2 it was at most 10 nM.
On to `CC(=O)Nc1cc(Nc2cc(C)nc(C(C)(F)F)n2)c(-c2nc3c(s2)CN(C)CC3)cn1` [Example 238, N-(4-((2-(1,1-difluoroethyl)-6-methylpyrimidin-4-yl)amino)-5-(5-methyl-4,5,6,7-tetrahydrothiazolo[5,4-c]pyridin-2-yl)pyridin-2-yl)acetamide], for which the IC50 on Tyk2 was at most 10 nM; at JAK2 it was at least 1000 nM; on JAK1, at least 1000 nM; at JH2 domain of human Tyk2, at most 10 nM.
As to `CC(=O)Nc1cc(Nc2cc(C)nc(C(C)(F)F)n2)c(-c2cc(C(F)F)ncn2)cn1` [Example 246, N-(4-((2-(1,1-difluoroethyl)-6-methylpyrimidin-4-yl)amino)-5-(6-(difluoromethyl)pyrimidin-4-yl)pyridin-2-yl)acetamide], the IC50 on Tyk2 is 10 to 100 nM; at JAK2, at least 1000 nM; at JAK1, at least 1000 nM; on JH2 domain of human Tyk2, at most 10 nM.
